Test results from ChEMBL document CHEMBL1146198, “In vitro studies with DQ-113 and comparison fluoroquinolones to determine propensities to select resistance in gram-positive cocci” (2007).
≈ marks a conversion by molar mass, not a printed value.

What follows are molecules tested on Streptococcus pneumoniae (assay: Effect on 2 ug/ml moxifloxacin-selected penicillin-resistant Streptococcus pneumoniae 218 mutant after five passages assessed as susceptibility by agar dilution method). Conditions: not given.
Type: functional
`Cc1c(N2C[C@@H](F)[C@@H](C3(N)CC3)C2)c(F)c(N)c2c(=O)c(C(=O)O)cn([C@@H]3C[C@@H]3F)c12` [DQ-113] showed an MIC of 0.03 µg/mL.

What follows are molecules tested on Staphylococcus aureus (assay: Susceptibility of methicillin-sensitive/resistant Staphylococcus aureus single-step mutant by agar dilution method). Conditions: not given.
Type: functional
`Cc1c(N2C[C@@H](F)[C@@H](C3(N)CC3)C2)c(F)c(N)c2c(=O)c(C(=O)O)cn([C@@H]3C[C@@H]3F)c12` [DQ-113] was tested, and the MIC was 0.03 µg/mL (≈ 0.0687 µM).

The molecules below were run on Streptococcus pneumoniae (assay: Susceptibility of penicillin-resistant Streptococcus pneumoniae 335 by agar dilution method). Conditions: not given.
Type: functional
`Cc1c(N2C[C@@H](F)[C@@H](C3(N)CC3)C2)c(F)c(N)c2c(=O)c(C(=O)O)cn([C@@H]3C[C@@H]3F)c12` [DQ-113] showed an MIC of 0.002 µg/mL (≈ 0.00458 µM).

The molecules below were run on Streptococcus pneumoniae (assay: Effect on 0.06 ug/ml DQ113-selected penicillin-resistant Streptococcus pneumoniae 335 mutant after five passages assessed as susceptibility by agar dilution method). Conditions: not given.
Type: functional
Molecule `Cc1c(N2C[C@@H](F)[C@@H](C3(N)CC3)C2)c(F)c(N)c2c(=O)c(C(=O)O)cn([C@@H]3C[C@@H]3F)c12` [DQ-113] has an MIC of 0.015 µg/mL (≈ 0.0344 µM).

Each molecule was assayed on Streptococcus pneumoniae (assay: Effect on 0.5 ug/ml […]-selected penicillin-resistant Streptococcus pneumoniae 335 mutant after five passages assessed as susceptibility by agar dilution method). Conditions: not given.
Type: functional
`Cc1c(N2C[C@@H](F)[C@@H](C3(N)CC3)C2)c(F)c(N)c2c(=O)c(C(=O)O)cn([C@@H]3C[C@@H]3F)c12` [DQ-113] gave an MIC of 0.03 µg/mL.

These molecules were tested on Streptococcus pneumoniae (assay: Effect on 1 ug/ml moxifloxacin-selected penicillin-resistant Streptococcus pneumoniae 335 mutant after five passages assessed as susceptibility by agar dilution method). Conditions: not given.
Type: functional
`Cc1c(N2C[C@@H](F)[C@@H](C3(N)CC3)C2)c(F)c(N)c2c(=O)c(C(=O)O)cn([C@@H]3C[C@@H]3F)c12` [DQ-113] showed an MIC of 0.03 µg/mL.

The molecules below were run on Streptococcus pneumoniae (assay: Effect on 0.06 ug/ml DQ113-selected penicillin-resistant Streptococcus pneumoniae 334 mutant after five passages assessed as susceptibility by agar dilution method). Conditions: not given.
Type: functional
Work on `Cc1c(N2C[C@@H](F)[C@@H](C3(N)CC3)C2)c(F)c(N)c2c(=O)c(C(=O)O)cn([C@@H]3C[C@@H]3F)c12` [DQ-113] yielded an MIC of 0.06 µg/mL (≈ 0.137 µM).

The molecules below were run on Streptococcus pneumoniae (assay: Effect on 8 ug/ml ciprofloxacin-selected penicillin-resistant Streptococcus pneumoniae 216 mutant after five passages assessed as susceptibility by agar dilution method). Conditions: not given.
Type: functional
`Cc1c(N2C[C@@H](F)[C@@H](C3(N)CC3)C2)c(F)c(N)c2c(=O)c(C(=O)O)cn([C@@H]3C[C@@H]3F)c12` [DQ-113] showed an MIC of 0.015 µg/mL.

The molecules below were run on Streptococcus pneumoniae (assay: Susceptibility of penicillin-resistant Streptococcus pneumoniae 218 by agar dilution method). Conditions: not given.
Type: functional
With `Cc1c(N2C[C@@H](F)[C@@H](C3(N)CC3)C2)c(F)c(N)c2c(=O)c(C(=O)O)cn([C@@H]3C[C@@H]3F)c12` [DQ-113] the MIC was 0.004 µg/mL (≈ 0.00917 µM).

The molecules below were run on Streptococcus pneumoniae (assay: Effect on 0.06 ug/ml DQ113-selected penicillin-resistant Streptococcus pneumoniae 218 mutant after five passages assessed as susceptibility by agar dilution method). Conditions: not given.
Type: functional
For `Cc1c(N2C[C@@H](F)[C@@H](C3(N)CC3)C2)c(F)c(N)c2c(=O)c(C(=O)O)cn([C@@H]3C[C@@H]3F)c12` [DQ-113], the MIC was 0.03 µg/mL (≈ 0.0687 µM).

These molecules were tested on Streptococcus pneumoniae (assay: Effect on 0.5 ug/ml sitafloxacin-selected penicillin-resistant Streptococcus pneumoniae 218 mutant after five passages assessed as susceptibility by agar dilution method). Conditions: not given.
Type: functional
`Cc1c(N2C[C@@H](F)[C@@H](C3(N)CC3)C2)c(F)c(N)c2c(=O)c(C(=O)O)cn([C@@H]3C[C@@H]3F)c12` [DQ-113] showed an MIC of 0.015 µg/mL.

What follows are molecules tested on Streptococcus pneumoniae (assay: Effect on 16 ug/ml levofloxacin-selected penicillin-resistant Streptococcus pneumoniae 218 mutant after five passages assessed as susceptibility by agar dilution method). Conditions: not given.
Type: functional
For `Cc1c(N2C[C@@H](F)[C@@H](C3(N)CC3)C2)c(F)c(N)c2c(=O)c(C(=O)O)cn([C@@H]3C[C@@H]3F)c12` [DQ-113], the MIC was 0.015 µg/mL.

These molecules were tested on Streptococcus pneumoniae (assay: Effect on 16 ug/ml ciprofloxacin-selected penicillin-resistant Streptococcus pneumoniae 218 mutant after five passages assessed as susceptibility by agar dilution method). Conditions: not given.
Type: functional
Work on `Cc1c(N2C[C@@H](F)[C@@H](C3(N)CC3)C2)c(F)c(N)c2c(=O)c(C(=O)O)cn([C@@H]3C[C@@H]3F)c12` [DQ-113] yielded an MIC of 0.06 µg/mL.

These molecules were tested on Enterococcus (assay: Susceptibility of vancomycin-resistant Enterococcus species single-step mutant by agar dilution method). Conditions: not given.
Type: functional
In the case of `Cc1c(N2C[C@@H](F)[C@@H](C3(N)CC3)C2)c(F)c(N)c2c(=O)c(C(=O)O)cn([C@@H]3C[C@@H]3F)c12` [DQ-113], the MIC is reported as 2 µg/mL (≈ 4.58 µM).

The molecules below were run on Enterococcus (assay: Susceptibility of drug-selected vancomycin-resistant Enterococcus species mutant by agar dilution method). Conditions: read-out: MIC.
Type: functional
Work on `Cc1c(N2C[C@@H](F)[C@@H](C3(N)CC3)C2)c(F)c(N)c2c(=O)c(C(=O)O)cn([C@@H]3C[C@@H]3F)c12` [DQ-113] yielded an MIC of 8 µg/mL (≈ 18.3 µM).

These molecules were tested on Streptococcus pneumoniae (assay: Effect on 16 ug/ml levofloxacin-selected penicillin-resistant Streptococcus pneumoniae 335 mutant after five passages assessed as susceptibility by agar dilution method). Conditions: not given.
Type: functional
Molecule `Cc1c(N2C[C@@H](F)[C@@H](C3(N)CC3)C2)c(F)c(N)c2c(=O)c(C(=O)O)cn([C@@H]3C[C@@H]3F)c12` [DQ-113] has an MIC of 0.12 µg/mL.

The molecules below were run on Streptococcus pneumoniae (assay: Effect on 16 ug/ml ciprofloxacin-selected penicillin-resistant Streptococcus pneumoniae 335 mutant after five passages assessed as susceptibility by agar dilution method). Conditions: not given.
Type: functional
In the case of `Cc1c(N2C[C@@H](F)[C@@H](C3(N)CC3)C2)c(F)c(N)c2c(=O)c(C(=O)O)cn([C@@H]3C[C@@H]3F)c12` [DQ-113], the MIC is reported as 0.007 µg/mL.

These molecules were tested on Streptococcus pneumoniae (assay: Susceptibility of penicillin-resistant Streptococcus pneumoniae 334 by agar dilution method). Conditions: not given.
Type: functional
`Cc1c(N2C[C@@H](F)[C@@H](C3(N)CC3)C2)c(F)c(N)c2c(=O)c(C(=O)O)cn([C@@H]3C[C@@H]3F)c12` [DQ-113] gave an MIC of 0.004 µg/mL (≈ 0.00917 µM).

What follows are molecules tested on Streptococcus pneumoniae (assay: Effect on 0.5 ug/ml sitafloxacin-selected penicillin-resistant Streptococcus pneumoniae 334 mutant after five passages assessed as susceptibility by agar dilution method). Conditions: not given.
Type: functional
`Cc1c(N2C[C@@H](F)[C@@H](C3(N)CC3)C2)c(F)c(N)c2c(=O)c(C(=O)O)cn([C@@H]3C[C@@H]3F)c12` [DQ-113] showed an MIC of 0.06 µg/mL.

What follows are molecules tested on Streptococcus pneumoniae (assay: Effect on 1 ug/ml moxifloxacin-selected penicillin-resistant Streptococcus pneumoniae 334 mutant after five passages assessed as susceptibility by agar dilution method). Conditions: not given.
Type: functional
`Cc1c(N2C[C@@H](F)[C@@H](C3(N)CC3)C2)c(F)c(N)c2c(=O)c(C(=O)O)cn([C@@H]3C[C@@H]3F)c12` [DQ-113] was tested, and the MIC was 0.015 µg/mL.

What follows are molecules tested on Streptococcus pneumoniae (assay: Effect on 4 ug/ml levofloxacin-selected penicillin-resistant Streptococcus pneumoniae 334 mutant after five passages assessed as susceptibility by agar dilution method). Conditions: not given.
Type: functional
For `Cc1c(N2C[C@@H](F)[C@@H](C3(N)CC3)C2)c(F)c(N)c2c(=O)c(C(=O)O)cn([C@@H]3C[C@@H]3F)c12` [DQ-113], the MIC was 0.03 µg/mL.

What follows are molecules tested on Streptococcus pneumoniae (assay: Effect on 32 ug/ml ciprofloxacin-selected penicillin-resistant Streptococcus pneumoniae 334 mutant after five passages assessed as susceptibility by agar dilution method). Conditions: not given.
Type: functional
With `Cc1c(N2C[C@@H](F)[C@@H](C3(N)CC3)C2)c(F)c(N)c2c(=O)c(C(=O)O)cn([C@@H]3C[C@@H]3F)c12` [DQ-113] the MIC was 0.03 µg/mL.

What follows are molecules tested on Streptococcus pneumoniae (assay: Susceptibility of penicillin-resistant Streptococcus pneumoniae 216 by agar dilution method). Conditions: not given.
Type: functional
`Cc1c(N2C[C@@H](F)[C@@H](C3(N)CC3)C2)c(F)c(N)c2c(=O)c(C(=O)O)cn([C@@H]3C[C@@H]3F)c12` [DQ-113] was tested, and the MIC was 0.001 µg/mL (≈ 0.00229 µM).

What follows are molecules tested on Streptococcus pneumoniae (assay: Effect on 0.06 ug/ml DQ113-selected penicillin-resistant Streptococcus pneumoniae 216 mutant after five passages assessed as susceptibility by agar dilution method). Conditions: not given.
Type: functional
Molecule `Cc1c(N2C[C@@H](F)[C@@H](C3(N)CC3)C2)c(F)c(N)c2c(=O)c(C(=O)O)cn([C@@H]3C[C@@H]3F)c12` [DQ-113] has an MIC of 0.06 µg/mL (≈ 0.137 µM).

The molecules below were run on Streptococcus pneumoniae (assay: (§1) Effect on 0.5 ug/ml sitafloxacin-selected penicillin-resistant Streptococcus pneumoniae 216 mutant after five passages assessed as susceptibility by agar dilution method). Conditions: not given.
Type: functional
In the case of `Cc1c(N2C[C@@H](F)[C@@H](C3(N)CC3)C2)c(F)c(N)c2c(=O)c(C(=O)O)cn([C@@H]3C[C@@H]3F)c12` [DQ-113], the MIC is reported as 0.03 µg/mL.

These molecules were tested on Streptococcus pneumoniae (assay: Effect on 2 ug/ml moxifloxacin-selected penicillin-resistant Streptococcus pneumoniae 216 mutant after five passages assessed as susceptibility by agar dilution method). Conditions: not given.
Type: functional
Work on `Cc1c(N2C[C@@H](F)[C@@H](C3(N)CC3)C2)c(F)c(N)c2c(=O)c(C(=O)O)cn([C@@H]3C[C@@H]3F)c12` [DQ-113] yielded an MIC of 0.12 µg/mL.

These molecules were tested on Streptococcus pneumoniae (assay: (§2) Effect on 4 ug/ml levofloxacin-selected penicillin-resistant Streptococcus pneumoniae 216 mutant after five passages assessed as susceptibility by agar dilution method). Conditions: not given.
Type: functional
In the case of `Cc1c(N2C[C@@H](F)[C@@H](C3(N)CC3)C2)c(F)c(N)c2c(=O)c(C(=O)O)cn([C@@H]3C[C@@H]3F)c12` [DQ-113], the MIC is reported as 0.007 µg/mL.

Each molecule was assayed on Streptococcus pneumoniae (assay: Effect on 32 ug/ml ciprofloxacin-selected penicillin-resistant Streptococcus pneumoniae 216 mutant after five passages assessed as susceptibility by agar dilution method). Conditions: not given.
Type: functional
`Cc1c(N2C[C@@H](F)[C@@H](C3(N)CC3)C2)c(F)c(N)c2c(=O)c(C(=O)O)cn([C@@H]3C[C@@H]3F)c12` [DQ-113] was tested, and the MIC was 0.015 µg/mL.

The molecules below were run on Streptococcus pneumoniae (assay: Susceptibility of penicillin-resistant Streptococcus pneumoniae 217 by agar dilution method). Conditions: not given.
Type: functional
`Cc1c(N2C[C@@H](F)[C@@H](C3(N)CC3)C2)c(F)c(N)c2c(=O)c(C(=O)O)cn([C@@H]3C[C@@H]3F)c12` [DQ-113] was tested, and the MIC was 0.004 µg/mL (≈ 0.00917 µM).

Each molecule was assayed on Streptococcus pneumoniae (assay: Effect on 0.03 ug/ml DQ113-selected penicillin-resistant Streptococcus pneumoniae 216 mutant after five passages assessed as susceptibility by agar dilution method). Conditions: not given.
Type: functional
Work on `Cc1c(N2C[C@@H](F)[C@@H](C3(N)CC3)C2)c(F)c(N)c2c(=O)c(C(=O)O)cn([C@@H]3C[C@@H]3F)c12` [DQ-113] yielded an MIC of 0.007 µg/mL (≈ 0.016 µM).

Each molecule was assayed on Streptococcus pneumoniae (assay: as §1). Conditions: not given.
Type: functional
`Cc1c(N2C[C@@H](F)[C@@H](C3(N)CC3)C2)c(F)c(N)c2c(=O)c(C(=O)O)cn([C@@H]3C[C@@H]3F)c12` [DQ-113] showed an MIC of 0.03 µg/mL.

These molecules were tested on Streptococcus pneumoniae (assay: Effect on 0.5 ug/ml moxifloxacin-selected penicillin-resistant Streptococcus pneumoniae 216 mutant after five passages assessed as susceptibility by agar dilution method). Conditions: not given.
Type: functional
With `Cc1c(N2C[C@@H](F)[C@@H](C3(N)CC3)C2)c(F)c(N)c2c(=O)c(C(=O)O)cn([C@@H]3C[C@@H]3F)c12` [DQ-113] the MIC was 0.015 µg/mL.

What follows are molecules tested on Streptococcus pneumoniae (assay: as §2). Conditions: not given.
Type: functional
`Cc1c(N2C[C@@H](F)[C@@H](C3(N)CC3)C2)c(F)c(N)c2c(=O)c(C(=O)O)cn([C@@H]3C[C@@H]3F)c12` [DQ-113] was tested, and the MIC was 0.002 µg/mL.
